From US20250064941A1, “SIGLEC LIGANDS, CONJUGATES, AND METHODS OF USE THEREOF” (Osprey Biopharmaceuticals, Inc., priority 2023, published 2025)

Columns and labels:
cynomolgus Siglec-2/CD22 = cynomolgus Siglec-2/CD22 (Macaca fascicularis, UniProt A0A2K5WCZ6); assay: biochemical; format: binding; conditions: SPR, steady-state analysis; read-out: Affinity cyno CD22
How it was run: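 Compound binding measured by steady-state SPR analysis, 120 s dissociation, in HEPES-NaCl-Tween buffer pH 7.5 containing 1% DMSO, DMSO solvent-corrected. Surface: cyno CD22, sialic acids first stripped by SialoExo for 4 h at 37° C., then amine-coupled onto CM5.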

[1] = target: T1, mouse Siglec-2-Fc-Avi (CD22) (Mus musculus, UniProt P35329); assay: SPR binding affinity to mouse CD22; conditions: steady-state analysis
T1 construct: made in house
T1 sequence (P35329 22-708 limits assumed): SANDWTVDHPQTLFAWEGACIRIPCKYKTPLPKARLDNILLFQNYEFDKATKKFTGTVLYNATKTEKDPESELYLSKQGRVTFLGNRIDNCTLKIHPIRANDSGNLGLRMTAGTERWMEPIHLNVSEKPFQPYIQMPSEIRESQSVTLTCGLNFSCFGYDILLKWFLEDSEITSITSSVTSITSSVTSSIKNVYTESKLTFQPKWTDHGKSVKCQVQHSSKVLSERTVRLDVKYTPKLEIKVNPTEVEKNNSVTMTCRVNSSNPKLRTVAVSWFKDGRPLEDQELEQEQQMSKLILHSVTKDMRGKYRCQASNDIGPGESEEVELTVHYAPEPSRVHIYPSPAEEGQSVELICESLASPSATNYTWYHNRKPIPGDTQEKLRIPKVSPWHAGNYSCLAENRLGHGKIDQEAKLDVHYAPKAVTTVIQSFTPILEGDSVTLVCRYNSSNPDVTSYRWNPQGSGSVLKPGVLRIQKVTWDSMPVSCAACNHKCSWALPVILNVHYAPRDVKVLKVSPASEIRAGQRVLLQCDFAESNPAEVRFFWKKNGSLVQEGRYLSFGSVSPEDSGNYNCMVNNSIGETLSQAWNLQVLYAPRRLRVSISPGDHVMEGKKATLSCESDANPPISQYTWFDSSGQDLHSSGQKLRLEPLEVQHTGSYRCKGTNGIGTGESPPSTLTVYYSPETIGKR
How it was run: (§1)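 SialoExo pretreatment, 4 h 37° C.; biotinylated CD22 on SA chip, Biacore 8K. Buffer 10 mM HEPES, 150 mM NaCl, 0.05% Tween-20, pH 7.5, 1% DMSO. Dissociation 120 s; solvent-corrected; steady-state KD.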

[2] = target: T2, human Siglec-2/CD22 protein (Homo sapiens, UniProt P20273); assay: SPR binding affinity to human CD22; conditions: steady-state analysis
T2 construct: purchased Acro Biosystems SI2-H82E3
T2 sequence (P20273 20-847): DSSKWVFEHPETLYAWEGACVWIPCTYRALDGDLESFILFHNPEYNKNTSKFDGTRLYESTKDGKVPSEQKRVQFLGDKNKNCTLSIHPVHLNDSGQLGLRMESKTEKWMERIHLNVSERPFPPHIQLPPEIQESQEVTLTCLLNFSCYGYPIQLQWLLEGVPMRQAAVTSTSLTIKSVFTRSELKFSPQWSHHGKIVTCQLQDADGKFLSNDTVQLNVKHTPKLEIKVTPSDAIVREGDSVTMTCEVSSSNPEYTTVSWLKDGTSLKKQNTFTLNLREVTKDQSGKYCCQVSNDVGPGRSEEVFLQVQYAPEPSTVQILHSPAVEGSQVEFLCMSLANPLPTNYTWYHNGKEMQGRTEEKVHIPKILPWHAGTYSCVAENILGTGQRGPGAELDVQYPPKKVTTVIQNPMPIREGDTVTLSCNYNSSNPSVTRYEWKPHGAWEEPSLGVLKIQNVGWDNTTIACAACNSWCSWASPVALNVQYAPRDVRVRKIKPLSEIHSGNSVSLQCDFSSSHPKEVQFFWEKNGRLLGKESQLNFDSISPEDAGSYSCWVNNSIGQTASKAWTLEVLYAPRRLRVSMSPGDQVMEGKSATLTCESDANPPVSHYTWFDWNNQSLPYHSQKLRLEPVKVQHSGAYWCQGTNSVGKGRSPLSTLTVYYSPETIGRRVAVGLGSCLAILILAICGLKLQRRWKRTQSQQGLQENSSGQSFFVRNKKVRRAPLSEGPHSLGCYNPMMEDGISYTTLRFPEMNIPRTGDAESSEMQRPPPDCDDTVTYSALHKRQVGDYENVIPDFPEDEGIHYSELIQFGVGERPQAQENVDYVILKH
How it was run: as §1

cynomolgus Siglec-2/CD22, sequence (A0A2K5WCZ6 entry or part of it): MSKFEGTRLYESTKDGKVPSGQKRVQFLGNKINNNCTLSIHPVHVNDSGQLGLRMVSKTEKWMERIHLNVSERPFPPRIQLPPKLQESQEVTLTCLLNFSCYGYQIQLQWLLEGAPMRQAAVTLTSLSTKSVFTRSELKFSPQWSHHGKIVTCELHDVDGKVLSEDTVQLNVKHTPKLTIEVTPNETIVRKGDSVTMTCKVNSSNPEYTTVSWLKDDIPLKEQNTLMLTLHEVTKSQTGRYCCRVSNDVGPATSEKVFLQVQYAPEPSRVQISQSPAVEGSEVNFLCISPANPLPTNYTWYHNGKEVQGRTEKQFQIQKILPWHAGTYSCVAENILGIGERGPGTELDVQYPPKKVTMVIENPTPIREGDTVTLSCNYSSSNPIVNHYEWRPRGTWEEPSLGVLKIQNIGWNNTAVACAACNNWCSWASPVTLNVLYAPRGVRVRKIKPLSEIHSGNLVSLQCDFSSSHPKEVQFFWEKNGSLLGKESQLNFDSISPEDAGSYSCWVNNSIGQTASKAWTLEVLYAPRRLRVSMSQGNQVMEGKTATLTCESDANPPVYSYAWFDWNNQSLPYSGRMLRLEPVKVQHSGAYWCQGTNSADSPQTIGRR

Row | SMILES | Kd (cynomolgus Siglec-2/CD22) | Kd [1] | Kd [2]
1 | CC(=O)NCCOCCOCCOCCOCCC(=O)NCCCCCCO[C@]1(C(=O)O)C[C@H](O)[C@@H](NC(C)=O)[C@H]([C@H](O)[C@H](O)CNC(=O)c2cccc(Cl)c2)O1 [Compound 271, (2R,4S,5R,6R)-5-acetamido-6-((1R,2R)-3-(3-chlorobenzamido)-1,2-dihydroxypropyl)-2-((2,18-dioxo-6,9,12,15-tetraoxa-3,19-diazapentacosan-25-yl)oxy)-4-hydroxytetrahydro-2H-pyran-2-carboxylic acid] | 1 to 10 µM | > 10 µM | 1 to 10 µM
2 | CC(=O)NCCOCCOCCOCCOCCn1cc(CCCCCCO[C@]2(C(=O)O)C[C@H](O)[C@@H](NC(C)=O)[C@H]([C@H](O)[C@H](O)CNC(=O)c3cccc(Cl)c3)O2)nn1 [Compound 272, (2R,4S,5R,6R)-5-acetamido-6-((1R,2R)-3-(3-chlorobenzamido)-1,2-dihydroxypropyl)-4-hydroxy-2-((6-(1-(2-oxo-6,9,12,15-tetraoxa-3-azaheptadecan-17-yl)-1H-1,2,3-triazol-4-yl)hexyl)oxy)tetrahydro-2H-pyran-2-carboxylic acid] | 1 to 10 µM | > 10 µM | 1 to 10 µM
3 | CC(=O)NCCOCCOCCOCCOCCNc1c(NCCCCCCO[C@]2(C(=O)O)C[C@H](O)[C@@H](NC(C)=O)[C@H]([C@H](O)[C@H](O)CNC(=O)c3cccc(Cl)c3)O2)c(=O)c1=O [Compound 273, (2R,4S,5R,6R)-5-acetamido-6-((1R,2R)-3-(3-chlorobenzamido)-1,2-dihydroxypropyl)-2-((6-((3,4-dioxo-2-((2-oxo-6,9,12,15-tetraoxa-3-azaheptadecan-17-yl)amino)cyclobut-1-en-1-yl)amino)hexyl)oxy)-4-hydroxytetrahydro-2H-pyran-2-carboxylic acid] | 1 to 10 µM | > 10 µM | 1 to 10 µM
4 | CC(=O)NCCOCCOCCOCCOCCC(=O)NCCOCCOCCO[C@]1(C(=O)O)C[C@H](O)[C@@H](NC(C)=O)[C@H]([C@H](O)[C@H](O)CNC(=O)Cc2ccc(Cl)cc2)O1 [Compound 274, (2R,4S,5R,6R)-5-acetamido-6-((1R,2R)-3-(2-(4-chlorophenyl)acetamido)-1,2-dihydroxypropyl)-2-((2,18-dioxo-6,9,12,15,22,25-hexaoxa-3,19-diazaheptacosan-27-yl)oxy)-4-hydroxytetrahydro-2H-pyran-2-carboxylic acid] | > 10 µM | > 10 µM | > 10 µM
5 | C#CCOCCOCCNc1c(NCCCCCCO[C@]2(C(=O)O)C[C@H](O)[C@@H](NC(=O)CO)[C@H]([C@H](O)[C@H](O)CNC(=O)C(F)(F)c3ccccc3)O2)c(=O)c1=O [Compound 275, (2R,4S,5R,6R)-6-((1R,2R)-3-(2,2-difluoro-2-phenylacetamido)-1,2-dihydroxypropyl)-2-((6-((3,4-dioxo-2-((2-(2-(prop-2-yn-1-yloxy)ethoxy)ethyl)amino)cyclobut-1-en-1-yl)amino)hexyl)oxy)-4-hydroxy-5-(2-hydroxyacetamido) tetrahydro-2H-pyran-2-carboxylic acid] | < 1 µM | 1 to 10 µM | < 1 µM
6 | C#CCOCCCCCCO[C@]1(C(=O)O)C[C@H](O)[C@@H](NC(N)=O)[C@H]([C@H](O)[C@H](O)CNC(=O)Cc2ccc(Cl)cc2)O1 [Cpd. 86, (2R,4S,5R,6R)-6-((1R,2R)-3-(2-(4-chlorophenyl)acetamido)-1,2-dihydroxypropyl)-4-hydroxy-2-((6-(prop-2-yn-1-yloxy)hexyl)oxy)-5-ureidotetrahydro-2H-pyran-2-carboxylic acid] | 1 to 10 µM | < 1 µM | < 1 µM
7 | C#CCOCCCCCCO[C@]1(C(=O)O)C[C@H](O)[C@@H](NC(=O)CO)[C@H]([C@H](O)[C@H](O)CNC(=O)Cc2ccc(C(C)C)cc2)O1 [Cpd. 159, (2R,4S,5R,6R)-6-((1R,2R)-1,2-dihydroxy-3-(2-(4-isopropylphenyl)acetamido)propyl)-4-hydroxy-5-(2-hydroxyacetamido)-2-((6-(prop-2-yn-1-yloxy)hexyl)oxy)tetrahydro-2H-pyran-2-carboxylic acid] | < 1 µM | < 1 µM | < 1 µM
8 | C#CCOCCNC(=O)CCCCCCO[C@]1(C(=O)O)C[C@H](O)[C@@H](NC(=O)CO)[C@H]([C@H](O)[C@H](O)CNC(=O)Cc2ccc(Cl)c(F)c2)O1 [Cpd. 214, (2R,4S,5R,6R)-6-((1R,2R)-3-(2-(4-chloro-3-fluorophenyl)acetamido)-1,2-dihydroxypropyl)-4-hydroxy-5-(2-hydroxyacetamido)-2-((7-oxo-7-((2-(prop-2-yn-1-yloxy)ethyl)amino)heptyl)oxy)tetrahydro-2H-pyran-2-carboxylic acid] | < 1 µM | < 1 µM | < 1 µM
9 | CC(=O)NCCOCCOCCOCCOCCC(=O)NCCCCCCO[C@]1(C(=O)O)C[C@H](O)[C@@H](NC(=O)CO)[C@H]([C@H](O)[C@H](O)CNC(=O)Cc2ccc(-c3nnn[nH]3)cc2)O1 [Cpd. 235, (2R,4S,5R,6R)-6-((1R,2R)-3-(2-(4-(1H-tetrazol-5-yl)phenyl)acetamido)-1,2-dihydroxypropyl)-2-((2,18-dioxo-6,9,12,15-tetraoxa-3,19-diazapentacosan-25-yl)oxy)-4-hydroxy-5-(2-hydroxyacetamido)tetrahydro-2H-pyran-2-carboxylic acid] | < 1 µM | < 1 µM | < 1 µM
10 | CC(=O)NCCOCCOCCOCCOCCC(=O)NCCCCCO[C@]1(C(=O)O)C[C@H](O)[C@@H](NC(=O)CO)[C@H]([C@H](O)[C@H](O)CNC(=O)Cc2ccc(Cl)cc2)O1 [Cpd. 241, (2R,4S,5R,6R)-6-((1R,2R)-3-(2-(4-chlorophenyl)acetamido)-1,2-dihydroxypropyl)-2-((2,18-dioxo-6,9,12,15-tetraoxa-3,19-diazatetracosan-24-yl)oxy)-4-hydroxy-5-(2-hydroxyacetamido) tetrahydro-2H-pyran-2-carboxylic acid] | < 1 µM | 1 to 10 µM | < 1 µM
11 | CC(=O)NCCOCCOCCOCCOCCNc1c(NCCOCCOCCO[C@]2(C(=O)O)C[C@H](O)[C@@H](NC(=O)CO)[C@H]([C@H](O)[C@H](O)CNC(=O)Cc3ccc(-c4ccccc4)cc3)O2)c(=O)c1=O [Cpd. 242, (2R,4S,5R,6R)-6-((1R,2R)-3-(2-([1,1′-biphenyl]-4-yl)acetamido)-1,2-dihydroxypropyl)-2-(2-(2-(2-((3,4-dioxo-2-((2-oxo-6,9,12,15-tetraoxa-3-azaheptadecan-17-yl)amino)cyclobut-1-en-1-yl)amino)ethoxy)ethoxy)ethoxy)-4-hydroxy-5-(2-hydroxyacetamido)tetrahydro-2H-pyran-2-carboxylic acid] | 1 to 10 µM | 1 to 10 µM | 1 to 10 µM
12 | CC(=O)NCCOCCOCCOCCOCc1cn(CCOCCOCCO[C@]2(C(=O)O)C[C@H](O)[C@@H](NC(=O)CO)[C@H]([C@H](O)[C@H](O)CNC(=O)Cc3ccc(-c4ccccc4)cc3)O2)nn1 [Cpd. 243, (2R,4S,5R,6R)-6-((1R,2R)-3-(2-([1,1′-biphenyl]-4-yl)acetamido)-1,2-dihydroxypropyl)-4-hydroxy-5-(2-hydroxyacetamido)-2-(2-(2-(2-(4-(15-oxo-2,5,8,11-tetraoxa-14-azahexadecyl)-1H-1,2,3-triazol-1-yl)ethoxy)ethoxy)ethoxy) tetrahydro-2H-pyran-2-carboxylic acid] | 1 to 10 µM | 1 to 10 µM | 1 to 10 µM
